Experiments:
Bile salt export pump = Bile salt export pump (Homo sapiens, UniProt O95342); type: functional
Adenosine receptor A3 = biological target: T1, Adenosine receptor A3 (Homo sapiens, UniProt P0DMS8)
T1 sequence (P0DMS8 whole entry): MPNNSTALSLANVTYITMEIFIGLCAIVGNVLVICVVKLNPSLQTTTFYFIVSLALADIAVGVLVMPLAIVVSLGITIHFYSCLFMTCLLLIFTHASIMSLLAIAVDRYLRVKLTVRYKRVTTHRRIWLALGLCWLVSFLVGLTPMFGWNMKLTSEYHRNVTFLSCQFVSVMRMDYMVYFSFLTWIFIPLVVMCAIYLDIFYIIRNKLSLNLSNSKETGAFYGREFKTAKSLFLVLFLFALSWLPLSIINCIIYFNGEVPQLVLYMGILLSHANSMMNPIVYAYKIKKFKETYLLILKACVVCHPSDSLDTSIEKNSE

[1] = biological target: T2, Alpha-2A adrenergic receptor (Homo sapiens, UniProt P08913); type: functional, cell-based
T2 sequence (P08913 whole entry): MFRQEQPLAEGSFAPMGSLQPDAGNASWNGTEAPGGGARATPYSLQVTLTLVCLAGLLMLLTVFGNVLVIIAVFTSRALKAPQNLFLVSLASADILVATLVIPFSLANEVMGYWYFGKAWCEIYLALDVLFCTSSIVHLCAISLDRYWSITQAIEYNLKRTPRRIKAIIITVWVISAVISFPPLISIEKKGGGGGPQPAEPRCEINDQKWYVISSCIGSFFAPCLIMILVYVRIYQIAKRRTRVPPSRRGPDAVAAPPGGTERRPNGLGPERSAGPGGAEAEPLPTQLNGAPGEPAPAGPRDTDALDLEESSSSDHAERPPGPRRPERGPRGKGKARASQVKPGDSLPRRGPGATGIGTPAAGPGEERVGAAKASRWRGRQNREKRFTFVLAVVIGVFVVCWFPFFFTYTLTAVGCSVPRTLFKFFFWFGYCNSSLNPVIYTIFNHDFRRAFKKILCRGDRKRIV

[2] = biological target: T3, Alpha-2C adrenergic receptor (Homo sapiens, UniProt P18825); type: functional
T3 sequence (P18825 whole entry): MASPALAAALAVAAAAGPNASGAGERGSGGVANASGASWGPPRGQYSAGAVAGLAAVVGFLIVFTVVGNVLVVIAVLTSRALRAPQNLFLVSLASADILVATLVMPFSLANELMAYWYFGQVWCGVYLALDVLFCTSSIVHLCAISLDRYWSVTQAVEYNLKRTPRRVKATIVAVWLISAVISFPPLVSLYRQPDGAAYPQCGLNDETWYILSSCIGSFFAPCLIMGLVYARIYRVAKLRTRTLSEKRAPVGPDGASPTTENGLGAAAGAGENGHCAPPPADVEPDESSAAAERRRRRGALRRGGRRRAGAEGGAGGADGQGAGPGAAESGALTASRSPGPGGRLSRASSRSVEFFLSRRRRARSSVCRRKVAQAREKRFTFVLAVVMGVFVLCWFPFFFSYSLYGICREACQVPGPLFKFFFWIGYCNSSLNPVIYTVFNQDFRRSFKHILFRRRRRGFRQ

[3] = biological target: T4, Muscarinic acetylcholine receptor M2 (Homo sapiens, UniProt P08172); type: functional, cell-based
T4 sequence (P08172 whole entry): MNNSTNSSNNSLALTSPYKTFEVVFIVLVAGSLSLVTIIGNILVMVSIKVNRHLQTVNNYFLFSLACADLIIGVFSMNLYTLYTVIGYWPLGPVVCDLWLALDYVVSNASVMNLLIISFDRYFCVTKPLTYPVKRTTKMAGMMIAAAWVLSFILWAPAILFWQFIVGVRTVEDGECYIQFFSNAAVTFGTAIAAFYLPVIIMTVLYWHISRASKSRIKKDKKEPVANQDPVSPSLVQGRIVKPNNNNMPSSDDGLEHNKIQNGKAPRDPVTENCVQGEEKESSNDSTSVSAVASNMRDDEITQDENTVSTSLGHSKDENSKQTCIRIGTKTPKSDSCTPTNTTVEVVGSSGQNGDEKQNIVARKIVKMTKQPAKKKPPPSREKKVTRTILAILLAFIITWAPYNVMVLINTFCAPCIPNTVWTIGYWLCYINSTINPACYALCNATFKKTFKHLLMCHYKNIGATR

D(1A) dopamine receptor = D(1A) dopamine receptor (Homo sapiens, UniProt P21728); type: functional, cell-based
[4] = biological target: 5-hydroxytryptamine receptor 2B (Homo sapiens, UniProt P41595); type: functional, cell-based
[5] = biological target: T5, 5-hydroxytryptamine receptor 3A (Homo sapiens, UniProt P46098); type: functional
T5 sequence (P46098 whole entry): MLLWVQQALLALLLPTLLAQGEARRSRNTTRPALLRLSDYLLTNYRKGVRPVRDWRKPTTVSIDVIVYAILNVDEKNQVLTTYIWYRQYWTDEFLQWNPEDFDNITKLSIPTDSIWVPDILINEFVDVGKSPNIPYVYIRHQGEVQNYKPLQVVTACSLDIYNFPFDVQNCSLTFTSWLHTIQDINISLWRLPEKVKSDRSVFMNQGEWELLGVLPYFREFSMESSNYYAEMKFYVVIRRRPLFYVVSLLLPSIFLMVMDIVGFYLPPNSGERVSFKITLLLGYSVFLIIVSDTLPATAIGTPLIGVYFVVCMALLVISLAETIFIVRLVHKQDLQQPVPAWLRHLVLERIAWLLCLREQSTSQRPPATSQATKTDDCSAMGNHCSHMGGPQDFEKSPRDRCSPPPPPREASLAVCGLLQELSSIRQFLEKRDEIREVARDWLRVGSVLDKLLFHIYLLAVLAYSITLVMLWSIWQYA

[6] = biological target: Voltage-gated inwardly rectifying potassium channel KCNH2 (Homo sapiens, UniProt Q12809); type: functional; details: read-out: AC50
Motilin receptor = Motilin receptor (Homo sapiens, UniProt O43193)
[7] = biological target: Delta-type opioid receptor (Homo sapiens, UniProt P41143)
[8] = biological target: 3',5'-cyclic-AMP phosphodiesterase 4D (Homo sapiens, UniProt Q08499); type: functional
[9] = biological target: Sodium-dependent dopamine transporter (Homo sapiens, UniProt Q01959)
[10] = biological target: cGMP-inhibited 3',5'-cyclic phosphodiesterase 3A (Homo sapiens, UniProt Q14432); type: functional
Note: assay procedure not described here.

Sequence of Bile salt export pump (O95342 whole entry): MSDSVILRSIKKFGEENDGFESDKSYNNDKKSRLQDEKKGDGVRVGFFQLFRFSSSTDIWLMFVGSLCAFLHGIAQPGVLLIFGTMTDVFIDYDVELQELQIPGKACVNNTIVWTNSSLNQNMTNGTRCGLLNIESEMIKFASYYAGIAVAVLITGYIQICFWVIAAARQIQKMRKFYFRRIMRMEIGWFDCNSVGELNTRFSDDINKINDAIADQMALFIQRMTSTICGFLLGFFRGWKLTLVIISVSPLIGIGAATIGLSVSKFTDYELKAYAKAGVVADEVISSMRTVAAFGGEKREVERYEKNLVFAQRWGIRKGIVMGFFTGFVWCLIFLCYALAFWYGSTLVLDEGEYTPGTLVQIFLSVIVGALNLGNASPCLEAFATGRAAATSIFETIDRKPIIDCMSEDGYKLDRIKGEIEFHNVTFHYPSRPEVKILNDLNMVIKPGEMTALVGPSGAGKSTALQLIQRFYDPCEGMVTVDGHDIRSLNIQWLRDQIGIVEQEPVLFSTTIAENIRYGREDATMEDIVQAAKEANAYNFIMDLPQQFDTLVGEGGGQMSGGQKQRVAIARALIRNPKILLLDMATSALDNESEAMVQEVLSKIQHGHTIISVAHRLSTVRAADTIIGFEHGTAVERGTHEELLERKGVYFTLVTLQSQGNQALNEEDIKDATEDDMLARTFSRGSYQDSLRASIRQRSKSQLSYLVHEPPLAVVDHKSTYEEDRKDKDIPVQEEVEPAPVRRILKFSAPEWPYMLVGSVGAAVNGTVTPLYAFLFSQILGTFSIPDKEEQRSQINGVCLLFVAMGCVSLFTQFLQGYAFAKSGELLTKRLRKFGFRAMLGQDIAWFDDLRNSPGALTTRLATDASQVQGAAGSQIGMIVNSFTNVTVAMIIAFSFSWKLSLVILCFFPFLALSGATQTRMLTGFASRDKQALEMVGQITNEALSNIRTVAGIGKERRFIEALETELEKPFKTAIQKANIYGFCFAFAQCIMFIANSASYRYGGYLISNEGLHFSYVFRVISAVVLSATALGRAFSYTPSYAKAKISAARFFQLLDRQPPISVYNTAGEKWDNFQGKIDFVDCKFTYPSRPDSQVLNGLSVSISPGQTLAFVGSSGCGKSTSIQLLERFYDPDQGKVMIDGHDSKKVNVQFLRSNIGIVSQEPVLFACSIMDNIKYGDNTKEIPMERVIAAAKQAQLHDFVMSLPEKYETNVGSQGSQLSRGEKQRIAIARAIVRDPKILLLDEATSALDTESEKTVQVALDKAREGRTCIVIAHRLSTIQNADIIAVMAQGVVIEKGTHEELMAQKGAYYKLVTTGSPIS
Sequence of 3',5'-cyclic-AMP phosphodiesterase 4D (Q08499 whole entry): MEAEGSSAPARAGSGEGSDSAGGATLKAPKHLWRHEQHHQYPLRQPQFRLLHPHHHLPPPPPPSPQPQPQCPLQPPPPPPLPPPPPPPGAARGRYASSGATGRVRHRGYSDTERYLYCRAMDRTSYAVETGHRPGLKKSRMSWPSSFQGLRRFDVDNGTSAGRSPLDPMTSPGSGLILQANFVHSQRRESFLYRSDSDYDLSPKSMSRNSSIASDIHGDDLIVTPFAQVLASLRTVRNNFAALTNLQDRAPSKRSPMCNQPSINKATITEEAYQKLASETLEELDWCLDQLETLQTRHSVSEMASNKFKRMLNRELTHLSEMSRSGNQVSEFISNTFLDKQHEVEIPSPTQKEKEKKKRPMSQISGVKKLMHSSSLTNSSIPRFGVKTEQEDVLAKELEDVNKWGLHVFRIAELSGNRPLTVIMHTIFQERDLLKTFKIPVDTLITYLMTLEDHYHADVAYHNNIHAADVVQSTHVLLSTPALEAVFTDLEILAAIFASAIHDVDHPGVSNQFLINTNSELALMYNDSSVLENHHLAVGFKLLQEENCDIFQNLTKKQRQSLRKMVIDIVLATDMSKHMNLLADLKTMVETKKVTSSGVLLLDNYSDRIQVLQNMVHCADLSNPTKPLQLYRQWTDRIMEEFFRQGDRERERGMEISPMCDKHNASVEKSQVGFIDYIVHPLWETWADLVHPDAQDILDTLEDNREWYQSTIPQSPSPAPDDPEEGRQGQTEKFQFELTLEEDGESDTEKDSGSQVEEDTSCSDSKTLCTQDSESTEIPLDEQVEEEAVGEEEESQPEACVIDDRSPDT
Sequence of Motilin receptor (O43193 whole entry): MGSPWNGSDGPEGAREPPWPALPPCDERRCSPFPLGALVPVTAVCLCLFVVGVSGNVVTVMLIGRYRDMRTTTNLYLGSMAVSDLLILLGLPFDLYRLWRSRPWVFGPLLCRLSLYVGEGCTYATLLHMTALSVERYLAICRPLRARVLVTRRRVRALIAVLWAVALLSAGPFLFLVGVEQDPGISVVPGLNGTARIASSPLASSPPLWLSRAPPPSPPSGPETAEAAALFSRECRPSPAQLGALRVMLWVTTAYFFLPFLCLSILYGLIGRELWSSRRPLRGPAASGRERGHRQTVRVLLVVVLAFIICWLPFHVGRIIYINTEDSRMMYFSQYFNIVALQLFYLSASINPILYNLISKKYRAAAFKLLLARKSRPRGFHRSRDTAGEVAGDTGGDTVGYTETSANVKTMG
Sequence of D(1A) dopamine receptor (P21728 whole entry): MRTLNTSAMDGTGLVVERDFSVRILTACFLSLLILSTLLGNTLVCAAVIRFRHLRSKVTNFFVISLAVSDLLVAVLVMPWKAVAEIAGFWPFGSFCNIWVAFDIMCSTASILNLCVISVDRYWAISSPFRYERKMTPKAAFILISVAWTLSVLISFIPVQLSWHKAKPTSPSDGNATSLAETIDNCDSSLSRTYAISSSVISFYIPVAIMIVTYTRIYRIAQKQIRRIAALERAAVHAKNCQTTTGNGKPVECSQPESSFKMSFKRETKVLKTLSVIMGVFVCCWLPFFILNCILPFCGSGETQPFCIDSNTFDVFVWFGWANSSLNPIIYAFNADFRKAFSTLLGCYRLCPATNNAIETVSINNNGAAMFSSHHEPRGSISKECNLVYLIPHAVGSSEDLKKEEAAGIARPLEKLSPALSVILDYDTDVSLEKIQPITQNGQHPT
Sequence of Delta-type opioid receptor (P41143 whole entry): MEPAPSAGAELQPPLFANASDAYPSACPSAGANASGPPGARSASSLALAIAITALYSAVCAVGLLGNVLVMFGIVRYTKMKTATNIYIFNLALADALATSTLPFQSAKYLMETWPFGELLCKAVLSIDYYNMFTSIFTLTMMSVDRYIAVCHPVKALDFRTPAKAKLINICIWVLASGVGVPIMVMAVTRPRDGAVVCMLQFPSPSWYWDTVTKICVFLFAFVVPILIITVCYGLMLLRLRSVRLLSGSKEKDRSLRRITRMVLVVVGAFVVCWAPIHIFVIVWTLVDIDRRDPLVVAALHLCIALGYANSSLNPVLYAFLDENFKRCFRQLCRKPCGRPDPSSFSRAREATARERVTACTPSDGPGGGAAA
Sequence of cGMP-inhibited 3',5'-cyclic phosphodiesterase 3A (Q14432 whole entry): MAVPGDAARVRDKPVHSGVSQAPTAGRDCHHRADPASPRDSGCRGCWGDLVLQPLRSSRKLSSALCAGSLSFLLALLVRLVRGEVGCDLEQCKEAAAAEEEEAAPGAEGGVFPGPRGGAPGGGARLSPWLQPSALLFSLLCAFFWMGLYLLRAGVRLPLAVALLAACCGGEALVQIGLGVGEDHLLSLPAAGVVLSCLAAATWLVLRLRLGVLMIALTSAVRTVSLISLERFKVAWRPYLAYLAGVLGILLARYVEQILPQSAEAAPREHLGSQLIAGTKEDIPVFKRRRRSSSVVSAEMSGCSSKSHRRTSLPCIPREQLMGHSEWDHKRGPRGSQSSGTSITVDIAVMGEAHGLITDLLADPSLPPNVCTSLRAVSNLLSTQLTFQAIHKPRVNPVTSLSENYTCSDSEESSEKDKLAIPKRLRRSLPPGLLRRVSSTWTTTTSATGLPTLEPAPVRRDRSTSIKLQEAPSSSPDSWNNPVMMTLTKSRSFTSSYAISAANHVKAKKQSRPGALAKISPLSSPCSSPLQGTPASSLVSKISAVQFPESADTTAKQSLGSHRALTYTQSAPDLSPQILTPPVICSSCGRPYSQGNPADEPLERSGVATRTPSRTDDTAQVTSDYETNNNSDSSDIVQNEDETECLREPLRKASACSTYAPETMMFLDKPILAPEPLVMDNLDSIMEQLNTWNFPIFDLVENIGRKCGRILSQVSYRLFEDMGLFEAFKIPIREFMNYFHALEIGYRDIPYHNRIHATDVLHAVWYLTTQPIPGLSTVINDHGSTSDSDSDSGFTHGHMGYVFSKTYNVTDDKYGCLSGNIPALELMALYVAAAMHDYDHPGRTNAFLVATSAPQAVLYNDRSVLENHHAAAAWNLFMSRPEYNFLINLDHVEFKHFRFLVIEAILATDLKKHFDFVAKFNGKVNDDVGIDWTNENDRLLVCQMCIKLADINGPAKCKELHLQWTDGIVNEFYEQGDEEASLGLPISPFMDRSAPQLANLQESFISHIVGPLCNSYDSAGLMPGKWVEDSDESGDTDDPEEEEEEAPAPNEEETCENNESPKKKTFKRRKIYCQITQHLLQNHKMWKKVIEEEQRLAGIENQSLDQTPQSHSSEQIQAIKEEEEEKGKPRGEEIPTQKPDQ
Sequence of 5-hydroxytryptamine receptor 2B (P41595 whole entry): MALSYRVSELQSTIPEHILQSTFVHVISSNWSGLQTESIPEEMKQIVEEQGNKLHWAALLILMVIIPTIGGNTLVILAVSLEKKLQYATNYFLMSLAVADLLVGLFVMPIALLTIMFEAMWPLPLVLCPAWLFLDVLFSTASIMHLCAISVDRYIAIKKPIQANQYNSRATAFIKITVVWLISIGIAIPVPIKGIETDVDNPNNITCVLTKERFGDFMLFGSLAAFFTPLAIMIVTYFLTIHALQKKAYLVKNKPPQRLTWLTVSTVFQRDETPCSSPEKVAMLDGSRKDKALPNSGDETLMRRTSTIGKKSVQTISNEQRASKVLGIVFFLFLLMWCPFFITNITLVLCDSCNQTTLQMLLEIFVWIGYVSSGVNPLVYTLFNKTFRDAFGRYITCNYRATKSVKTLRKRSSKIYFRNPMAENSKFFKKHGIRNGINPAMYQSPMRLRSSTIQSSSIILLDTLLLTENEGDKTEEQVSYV

| AC50 (Bile salt export pump) | AC50 (Adenosine receptor A3) | AC50 [1] | AC50 [2] | AC50 [3] | AC50 (D(1A) dopamine receptor) | AC50 [4] | AC50 [5] | AC50 (Motilin receptor) | AC50 [7] | AC50 [8] | AC50 [9] | AC50 [10] | Compound | AC50 [6] |
| --- | --- | --- | --- | --- | --- | --- | --- | --- | --- | --- | --- | --- | --- | --- |
| > 300 µM | > 30 µM | > 10 µM | > 10 µM | > 10 µM | > 10 µM | > 10 µM | > 10 µM | > 10 µM | > 10 µM | > 10 µM | > 10 µM | > 10 µM | CCOC(=O)[C@H](CCc1ccccc1)N[C@@H](C)C(=O)N1CCC[C@H]1C(=O)O | > 30 µM |
| 160 µM | > 10 µM | > 10 µM | > 10 µM | > 10 µM | > 30 µM | > 10 µM | > 30 µM | > 10 µM | > 30 µM | > 30 µM | > 10 µM | > 30 µM | O=C(O)c1cc(-c2ccc(F)cc2F)ccc1O [DIFLUNISAL] | > 30 µM |
| > 300 µM | > 30 µM | > 30 µM | 0.72 µM | > 30 µM | > 30 µM | > 30 µM | > 30 µM | 27 µM | > 30 µM | > 30 µM | 25 µM | > 30 µM | CC(=O)c1ccc2c(c1)N(CCCN1CCN(CCO)CC1)c1ccccc1S2 [ACETOPHENAZINE] | 2.3 µM |
| > 300 µM | > 10 µM | > 10 µM | > 10 µM | > 10 µM | > 30 µM | > 10 µM | > 30 µM | > 10 µM | > 30 µM | > 30 µM | > 10 µM | > 30 µM | CN1C(=O)CC(C)(c2ccccc2)C1=O (configuration not stated) [METHSUXIMIDE] | > 30 µM |
| 37 µM | 18 µM | > 30 µM | > 30 µM | > 30 µM | > 30 µM | > 30 µM | > 30 µM | > 30 µM | > 30 µM | > 30 µM | > 30 µM | > 30 µM | CCCS(=O)(=O)Nc1ccc(F)c(C(=O)c2c[nH]c3ncc(-c4ccc(Cl)cc4)cc23)c1F [VEMURAFENIB] | > 30 µM |
| > 300 µM | > 10 µM | > 10 µM | > 10 µM | > 10 µM | > 30 µM | > 10 µM | > 30 µM | > 10 µM | > 30 µM | > 30 µM | > 10 µM | > 30 µM | NC[C@H]1CC[C@H](C(=O)O)CC1 [TRANEXAMIC ACID] | > 30 µM |
| > 100 µM | > 30 µM | > 30 µM | > 30 µM | > 30 µM | > 30 µM | > 30 µM | > 30 µM | > 30 µM | > 30 µM | > 30 µM | > 30 µM | > 30 µM | CC[C@H](C)C(=O)O[C@H]1C[C@H](O)C=C2C=C[C@H](C)[C@H](CC[C@@H](O)C[C@@H](O)CC(=O)O)[C@H]21 [PRAVASTATIN] | > 30 µM |
| 140 µM | > 10 µM | > 10 µM | > 30 µM | > 10 µM | > 30 µM | > 10 µM | > 30 µM | > 10 µM | > 30 µM | 16 µM | > 10 µM | > 30 µM | C[C@H]1C[C@@H]2[C@H]([C@@H](O)C[C@@]3(C)[C@H]2CC[C@]3(O)C(=O)CO)[C@@]2(C)C=CC(=O)C=C12 [METHYLPREDNISOLONE] | > 30 µM |
| > 300 µM | > 30 µM | > 10 µM | > 10 µM | > 10 µM | > 10 µM | > 10 µM | > 10 µM | > 10 µM | > 10 µM | > 10 µM | > 10 µM | > 30 µM | NS(=O)(=O)c1cc2c(cc1Cl)NCNS2(=O)=O [HYDROCHLOROTHIAZIDE] | > 30 µM |
| > 300 µM | > 10 µM | > 10 µM | > 10 µM | > 10 µM | > 10 µM | > 10 µM | > 30 µM | > 10 µM | > 30 µM | > 30 µM | > 10 µM | > 30 µM | CC(C(=O)O)c1ccc(C(=O)c2cccs2)cc1 (configuration not stated) [SUPROFEN] | > 30 µM |

| Compound | AC50 (Bile salt export pump) | AC50 (Adenosine receptor A3) | AC50 [1] | AC50 [2] | AC50 [3] | AC50 (D(1A) dopamine receptor) | AC50 [4] | AC50 [5] | AC50 (Motilin receptor) | AC50 [7] | AC50 [8] | AC50 [9] | AC50 [10] | AC50 [6] |
| --- | --- | --- | --- | --- | --- | --- | --- | --- | --- | --- | --- | --- | --- | --- |
| CC(C)Cc1ccc(CC(=O)O)cc1 [IBUFENAC] | > 300 µM | > 30 µM | > 30 µM | > 30 µM | > 30 µM | > 30 µM | > 30 µM | > 30 µM | > 30 µM | > 30 µM | > 30 µM | > 30 µM | > 30 µM | > 30 µM |
| CCc1ccc(CCOc2ccc(CC3SC(=O)NC3=O)cc2)nc1 (configuration not stated) [PIOGLITAZONE] | 0.1 µM | > 30 µM | > 10 µM | > 10 µM | > 10 µM | > 10 µM | > 10 µM | > 10 µM | > 10 µM | > 10 µM | > 10 µM | > 30 µM | > 30 µM | > 30 µM |
| NC(=O)c1cnccn1 [PYRAZINAMIDE] | > 300 µM | 3.86 µM | > 30 µM | > 30 µM | > 30 µM | > 30 µM | > 30 µM | > 30 µM | > 30 µM | > 30 µM | > 30 µM | > 30 µM | > 30 µM | > 30 µM |
